What was measured:
Salmonella tolC mutant = experiment: Growth assay, Salmonella tolC mutant in wild‐type or fra island mutant background; format: cell-based; conditions: early finding; could not be replicated after multiple attempts with stocks from different suppliers (data not shown)
Text: We sought to examine the possibility that some of the hits in the biochemical HTS were not picked up in the cell‐based assays due to efficient efflux mechanisms in Salmonella. Because TolC is an outer membrane protein channel that is essential for the ability of seven of the 10 inner membrane drug‐efflux transporters to expel structurally diverse molecules, we generated a Salmonella tolC mutant and tested the 121 compounds that we purchased (Sabag‐Daigle, A. & Ahmer, B. M. M., unpublished results). The tests were conducted in parallel using the tolC mutant in a wild‐type or fra island mutant background; the latter lacks the entire fra locus and is incapable of catabolizing F‐Asn and forming 6‐P‐F‐Asp. Thus, any inhibitor specific for FraB (and which was being effluxed in the wild‐type) will inhibit the tolC mutant in a wild‐type but not the fra island mutant background. A caveat is that efflux of compounds may also be achieved via TolC‐independent drug‐efflux pumps.

[1] = target: His6‐FraB (Salmonella FraB deglycase) (Salmonella enterica subsp. enterica serovar Typhimurium, UniProt Q8ZLD0); experiment: FraB-G6PD coupled assay, Michaelis–Menten analysis for K I and mode of inhibition; format: biochemical
Sequence of His6‐FraB (Salmonella FraB deglycase) (Q8ZLD0 entry or part of it): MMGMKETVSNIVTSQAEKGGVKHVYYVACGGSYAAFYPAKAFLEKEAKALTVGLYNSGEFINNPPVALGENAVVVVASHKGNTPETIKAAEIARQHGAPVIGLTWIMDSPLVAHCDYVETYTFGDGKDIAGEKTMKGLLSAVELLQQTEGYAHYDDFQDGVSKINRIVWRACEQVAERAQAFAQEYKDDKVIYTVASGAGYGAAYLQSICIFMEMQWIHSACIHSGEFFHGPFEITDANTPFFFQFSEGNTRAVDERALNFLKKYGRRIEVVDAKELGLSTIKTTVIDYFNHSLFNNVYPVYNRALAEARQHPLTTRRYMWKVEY
Method: To determine the K I of each inhibitor, 29 μL of master mix was added to two rows of a 384‐well Greiner plate, using a single‐channel pipette, and incubated at 20 °C for 20 min. A 12‐channel pipette was then used to transfer and mix 1 μL of varying [6‐P‐F‐Asp] to all 48 wells. The final reaction (30 μL) consisted of 25 mM HEPES pH 8.0 at 20 °C, 5 mM MgCl2, 0.1 mM EGTA, 0.5 mM NAD^+, 1 mU G6PD, 100 nM His6‐FraB, varying (6‐P‐F‐Asp) (between 8 and 12 concentrations), and varying [inhibitor] (between three and five concentrations) in 10% (v/v) DMSO. NADH fluorescence was monitored every 10 s for 10 min total on a SPARK® multi‐mode multiplate reader (Tecan), as described above, and plotted against time. Slopes of the linear range of each curve were converted to initial velocities, as described above, that were then plotted against [6‐P‐F‐Asp]. A hyperbolic curve was then fitted to the data to obtain the k cat and K m values according to the formula: v o = (V max × [S])/(K m + [S]).
To determine the correlation between the observed and expected initial velocities (Fig. S5A), these values were exported from Kaleidagraph, plotted against one another, and a curve was fit using the formula: y = mx + b. The differences between observed and expected initial velocities (residuals) were then depicted as box‐and‐whisker plots (Fig. S5B). Lineweaver‐Burk plots were generated by graphing 1/v o versus 1/[S] and curves were fit to the data with Kaleidagraph using the formula: 1/v o = (Km/V max).(1/[S]) + (1/V max). The k cat and K m parameters were then converted into α′ values by dividing the k cat of the control (no inhibitor) by either itself (α′= 1) or the k cat of test samples with variable [inhibitor]. Those α′ values were plotted against [inhibitor] and K I values were determined from the equation α = 1 + [I]/K I.
The initial velocities used to generate the Michaelis–Menten plots were also employed to obtain the IC50 vs [S]/K m plots. For a given [S], initial velocities were converted into relative activities and plotted versus [inhibitor]. […] The IC50 values determined from the IC50 vs [S]/K m plots were then used to plot 1/IC50 versus v o/V max. A curve was fit to the data using the formula: y = mx + b. The Y‐intercept of the 1/IC50 versus v o/V max plot is equal to 1/K IC, and the slope, for mixed inhibitors, is equal to 1/K IU – 1/K IC. […] Data analyses were performed as described above (see Tables S1–S7 for curve‐fit errors and goodness‐of‐fit values).

## Fc1ccc(-c2nn3c(-c4ccccn4)nnc3s2)cc1 [3469:N17, 6‐(4‐fluorophenyl)‐3‐pyridin‐2‐yl‐[1,2,4]triazolo[3,4‐b][1,3,4]thiadiazole]
Salmonella tolC mutant
  inhibition of growth of Salmonella tolC, fra‐dependent: initially shown to inhibit the growth of Salmonella tolC in a fra‐dependent manner
[1]; 'this trend' = IC50 does not vary with [S]/K m, change evident only from 0.2 to 1.6× [S]/K m
  change of IC50 values with increasing [S]/K m: modest decrease
[1]; Fig. S12
  slope in plots of 1/IC50 vs. v o/V max: weakly positive
[1]; IC50 (IC50 versus [S]/Km plots), Trial 1, 6-P-F-Asp 7.38 µM, S/Km 0.175714, unit from Fig. S11 axis
  IC50: 47.9 µM
[1]; IC50 (IC50 versus [S]/Km plots), Trial 1, 6-P-F-Asp 15.7 µM, S/Km 0.37381, unit from Fig. S11 axis
  IC50: 45.4 µM
[1]; IC50 (IC50 versus [S]/Km plots), Trial 1, 6-P-F-Asp 31.3 µM, S/Km 0.745238, unit from Fig. S11 axis
  IC50: 40.9 µM
[1]; IC50 (IC50 versus [S]/Km plots), Trial 1, 6-P-F-Asp 62.5 µM, S/Km 1.488095, unit from Fig. S11 axis
  IC50: 34.9 µM
[1]; IC50 (IC50 versus [S]/Km plots), Trial 1, 6-P-F-Asp 125 µM, S/Km 2.97619, unit from Fig. S11 axis
  IC50: 32.7 µM
[1]; IC50 (IC50 versus [S]/Km plots), Trial 1, 6-P-F-Asp 250 µM, S/Km 5.952381, unit from Fig. S11 axis
  IC50: 34.1 µM
[1]; IC50 (IC50 versus [S]/Km plots), Trial 1, 6-P-F-Asp 500 µM, S/Km 11.90476, unit from Fig. S11 axis
  IC50: 30.1 µM
[1]; IC50 (IC50 versus [S]/Km plots), Trial 1, 6-P-F-Asp 750 µM, S/Km 17.85714, unit from Fig. S11 axis
  IC50: 33.4 µM
[1]; IC50 (IC50 versus [S]/Km plots), Trial 1, 6-P-F-Asp 1000 µM, S/Km 23.80952, unit from Fig. S11 axis
  IC50: 32.7 µM
[1]; IC50 (IC50 versus [S]/Km plots), Trial 1, 6-P-F-Asp 2000 µM, S/Km 47.61905, unit from Fig. S11 axis
  IC50: 32.5 µM
[1]; IC50 (IC50 versus [S]/Km plots), Trial 1, 6-P-F-Asp 3000 µM, S/Km 71.42857, unit from Fig. S11 axis
  IC50: 39.3 µM
[1]; IC50 (IC50 versus [S]/Km plots), Trial 2, 6-P-F-Asp 7.38 µM, S/Km 0.175714, unit from Fig. S11 axis
  IC50: 36.6 µM
[1]; IC50 (IC50 versus [S]/Km plots), Trial 2, 6-P-F-Asp 15.7 µM, S/Km 0.37381, unit from Fig. S11 axis
  IC50: 44.8 µM
[1]; IC50 (IC50 versus [S]/Km plots), Trial 2, 6-P-F-Asp 31.3 µM, S/Km 0.745238, unit from Fig. S11 axis
  IC50: 48.2 µM
[1]; IC50 (IC50 versus [S]/Km plots), Trial 2, 6-P-F-Asp 62.5 µM, S/Km 1.488095, unit from Fig. S11 axis
  IC50: 48.5 µM
[1]; IC50 (IC50 versus [S]/Km plots), Trial 2, 6-P-F-Asp 125 µM, S/Km 2.97619, unit from Fig. S11 axis
  IC50: 37.7 µM
[1]; IC50 (IC50 versus [S]/Km plots), Trial 2, 6-P-F-Asp 250 µM, S/Km 5.952381, unit from Fig. S11 axis
  IC50: 34 µM
[1]; IC50 (IC50 versus [S]/Km plots), Trial 2, 6-P-F-Asp 500 µM, S/Km 11.90476, unit from Fig. S11 axis
  IC50: 32.9 µM
[1]; IC50 (IC50 versus [S]/Km plots), Trial 2, 6-P-F-Asp 750 µM, S/Km 17.85714, unit from Fig. S11 axis
  IC50: 35.9 µM
[1]; IC50 (IC50 versus [S]/Km plots), Trial 2, 6-P-F-Asp 1000 µM, S/Km 23.80952, unit from Fig. S11 axis
  IC50: 34.9 µM
[1]; IC50 (IC50 versus [S]/Km plots), Trial 2, 6-P-F-Asp 2000 µM, S/Km 47.61905, unit from Fig. S11 axis
  IC50: 39.2 µM
[1]; IC50 (IC50 versus [S]/Km plots), Trial 2, 6-P-F-Asp 3000 µM, S/Km 71.42857, unit from Fig. S11 axis
  IC50: 42.2 µM
[1]; IC50, mean and standard deviation of all IC50 values in IC50 vs [S]/Km plot, trial shown in Fig. S11 panels M-X
  IC50: 40 ± 6 µM
[1]; K I, from Michaelis–Menten analysis of FraB at different inhibitor concentrations, average and standard error from two measurements
  Ki: 28.5 ± 3.5 µM
[1]; KI from α′ vs [I] plot, trial shown in Fig. S11 panels M-X
  Ki: 25 µM
[1]; KI from α′ vs [I] plot, trial shown in Fig. S11 panels Y-AJ
  Ki: 32 µM
[1]; average (±SE), from 1/IC50 versus v o/V max plots
  K IU/K IC ratio: 0.7 ± 0.1
[1]; kinetic analyses (Lineweaver‐Burk, α′ vs [I], IC50 vs [S]/K m, 1/IC50 vs v o/V max)
  mode of inhibition: mixed‐type uncompetitive

From article PMC12051030, “Identification of inhibitors of the Salmonella FraB deglycase, a drug target” (FEBS Open Bio, 2025)
